This passage reports IC50 results from patent publication US7737161B2, “Condensed furan compounds” (Mitsubishi Tanabe Pharma Corporation, priority 2003, dated 2010).

This assay deals with T1, human FXa (Homo sapiens, UniProt P00742).
T1 construct: purchased Enzyme Research Laboratories, Inc
The assay is described as follows: Inhibitory effect on activated blood coagulation factor X (chromogenic substrate S-2222). The class given is biochemical. As to conditions: human FXa 0.05 U/ml, S-2222 0.5 mM, 37° C., pH 8.4. The method, then: A substrate solution was prepared by dissolving chromogenic substrate S-2222 at the concentration of 0.625 mM (final concentration 0.5 mM) in 100 mM Tris buffer (pH 8.4) containing 200 mM sodium chloride and 0.1% bovine serum albumin, and a test compound solution was prepared by dissolving a test compound in a buffer containing 10% dimethyl sulfoxide. The test compound solution (25 μl) was added to the substrate solution (200 μl). In the control group, 25 μl of the buffer containing 10% dimethyl sulfoxide was used instead of the test compound solution.
After pre-warming at 37° C. for 3 minutes, 25 μl of human FXa (Enzyme Research Laboratories, Inc.) dissolved at 0.5 U/ml in a buffer was added to the reaction mixture (final concentration of FXa: 0.05 U/ml) to initiate the reaction. During a 5-minute reaction at 37° C., the absorbance at 405 nm was monitored continuously on a 96 well microplate reader (Spectra MAX250, Molecular Devices) and the increase of absorbance was used as an index of FXa activity. In order to evaluate FXa inhibitory activity of a test compound, the 50% inhibitory concentration of the test compound for FXa activity compared to the control group (IC50 value) was calculated using analytic soft (GraphPad Prism, GraphPad Software, Inc.).

T1 sequence (P00742 235-488 limits assumed): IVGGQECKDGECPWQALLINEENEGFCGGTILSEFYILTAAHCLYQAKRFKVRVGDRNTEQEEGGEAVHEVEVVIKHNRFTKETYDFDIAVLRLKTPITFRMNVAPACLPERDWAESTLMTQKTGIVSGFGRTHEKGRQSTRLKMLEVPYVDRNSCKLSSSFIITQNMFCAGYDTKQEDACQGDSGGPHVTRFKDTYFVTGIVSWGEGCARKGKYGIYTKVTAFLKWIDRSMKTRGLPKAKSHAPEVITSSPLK
T1 sequence (P00742 41-179 partner limits assumed): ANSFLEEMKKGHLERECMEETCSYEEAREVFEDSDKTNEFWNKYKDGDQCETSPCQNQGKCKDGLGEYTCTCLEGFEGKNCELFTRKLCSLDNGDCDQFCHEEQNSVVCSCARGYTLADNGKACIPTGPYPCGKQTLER

For orientation: IC50 means the point on the concentration scale where inhibition reaches its midpoint. For `COc1ccc2oc(C(=O)Nc3ccc(Cl)cn3)c(NC(=O)[C@H]3CC[C@H](N(C)C)CC3)c2n1` [Example 36], the half-maximal inhibitory concentration (IC50) was 10.8 nM. This counts as double-digit nanomolar.
